{"source": "patent US8653048B2", "about": "(Sanlugen Pharmatech Ltd., priority 2009, dated 2014)", "assay": "Pharmacokinetics of gemcitabine in mice, intravenous and oral", "type": "in vivo", "details": "both sexes, Kunming, mouse, plasma, 50 mg/kg; for MRT last: read-out: MRT0-t", "description": "Kunming strain white mice (25+1 g, provided by Experimental Animal Center of Shandong University, half of which were male, half were female).\nThe solution was filtered and sterilized using a 0.22 μm microfiltration membrane.\n120 healthy Kunming mice were taken and divided into two groups randomly. […] The second group was given gemcitabine by intravenous injection in a tail vein. Five mice were settled parallel at each time point. The dosage was 50 mg/kg (equivalent to 0.2 mL per mouse). The mice were fasted but allowed to drink for a 12 h period before administration. Blood samples were drawn from eyebase veniplex at 5 min, 15 min, 30 min, 45 min, 1 h, 2 h, 4 h, 6 h, 8 h, 12 h, 24 h, 48 h after the administration and put into hepain sodium treated centrifuge tubes containing 2.5 μL tetrahydrouridine solution (THU, 10 mg/ml) and centrifuged for 15 min at 4000 r/min. Isopropanol (1 mL) was added into the solution and vortexed for 30 s and kept still for 5 min. 2.5 ml of EtOAc was added and votexed and centrifuged at 4000 rpm for 15 minutes. The supernatant was taken and dried by blowing in nitrogen. The dried sample was redissolved in 200 μL HPLC mobile phase solution. 20 μL sample was loaded to the HPLC. The chromatography and peak area were recorded.", "note": "Like-named read-outs stand apart in the source and are kept apart here.", "data": [{"smiles": "Nc1ccn([C@@H]2O[C@H](CO)[C@@H](O)C2(F)F)c(=O)n1", "note": "[Gemcitabine, gemcitabine, reference compound]", "values": [{"measurement": "AUC(0-t)", "setting": "iv", "value": 11300, "unit": "ng·h/mL"}, {"measurement": "Cmax", "setting": "iv", "value": 11500, "unit": "ng/mL"}, {"measurement": "Tmax", "setting": "iv", "value": 4.98, "unit": "min"}, {"measurement": "half-life", "setting": "iv", "value": 58.2, "unit": "min"}, {"measurement": "MRT last", "setting": "iv", "value": 64.2, "unit": "min"}, {"measurement": "bioavailability", "setting": "oral, AUCoral/AUCiv, mice, read-out: Absolute bioavailability", "value": 35.6, "unit": "%"}, {"measurement": "AUC(0-t)", "setting": "po", "value": 4020, "unit": "ng·h/mL"}, {"measurement": "Cmax", "setting": "po", "value": 2600, "unit": "ng/mL"}, {"measurement": "Tmax", "setting": "po", "value": 30, "unit": "min"}, {"measurement": "half-life", "setting": "po", "value": 49.8, "unit": "min"}, {"measurement": "MRT last", "setting": "po", "value": 76.8, "unit": "min"}]}]}
